Reference: patent US20070117743A1, “New antitumoral compounds” (priority 2003, published 2007)
Where two headings read alike, the source gives them in different places. Where a SMILES comes first, the peptide text is derived from it. Bridges are numbered along the chain shown (N, C = ends). [ ]: non-standard residue; d: D form. The star is where a group is joined. d(aIle) = CC[C@H](C)[C@@H](N)C(=O)O; d(aThr) = C[C@@H](O)[C@@H](N)C(=O)O; Hexanoyl(5-Me) = CC(C)CCCC(=O)*; Orn = NCCC[C@H](N)C(=O)O; Dhb = C/C=C(\N)C(=O)O

Assays:
Type in all cases: cell-based, human
LNCaP = assay: SRB colorimetric assay of cell growth and viability, LNCaP; conditions: 48 hours exposure; for CC50: read-out: LC50 LN-caP
LoVo-Dox = assay: SRB colorimetric assay of cell growth and viability, LoVo-Dox; conditions: LOVO-DOX, 48 hours exposure; for CC50: read-out: LC50 LOVO-DOX
Method in brief: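 First, 5×10^3 cells per well attach for 18 hours in RPMI 1640 with 10% FBS at 37° C and 5% CO2. Next, samples spanning 10 to 10^−8 μg/mL are added for 48 hours. Finally, cells are fixed with TCA, stained with SRB for 10 minutes and read at 490 nm.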

DU-145 = assay: SRB colorimetric assay of cell growth and viability, DU-145; conditions: 48 hours exposure
HeLa-APL = assay: SRB colorimetric assay of cell growth and viability, HeLa-APL; conditions: 48 hours exposure; for CC50: read-out: LC50 HELA-APL
HT-29 = assay: SRB colorimetric assay of cell growth and viability, HT-29; conditions: 48 hours exposure; for GI50: read-out: GI50 HT-29; for CC50: read-out: LC50 HT-29
IGROV-1 = assay: SRB colorimetric assay of cell growth and viability, IGROV-1; conditions: 48 hours exposure
PANC-1 = assay: SRB colorimetric assay of cell growth and viability, PANC-1; conditions: 48 hours exposure; for CC50: read-out: LC50 PANC-1
A-549 = assay: SRB colorimetric assay of cell growth and viability, A-549; conditions: 48 hours exposure; for GI50: read-out: GI50 A-549; for CC50: read-out: LC50 A-549
HeLa = assay: SRB colorimetric assay of cell growth and viability, HeLa; conditions: 48 hours exposure; for CC50: read-out: LC50 HELA
SK-BR-3 = assay: SRB colorimetric assay of cell growth and viability, SK-BR-3; conditions: 48 hours exposure
K-562 = assay: SRB colorimetric assay of cell growth and viability, K-562; conditions: 48 hours exposure; for CC50: read-out: LC50 K-562
SK-MEL-28 = assay: SRB colorimetric assay of cell growth and viability, SK-MEL-28; conditions: 48 hours exposure; for CC50: read-out: LC50 MEL-28
IGROV-ET = assay: SRB colorimetric assay of cell growth and viability, IGROV-ET; conditions: 48 hours exposure; for CC50: read-out: LC50 IGROV-ET
LoVo = assay: SRB colorimetric assay of cell growth and viability, LoVo; conditions: 48 hours exposure

C/C=C1\NC(=O)[C@H](Cc2ccccc2)NC(=O)[C@@H](C(C)C)NC(=O)[C@@H]([C@@H](C)CC)NC(=O)[C@H](NC(=O)[C@H](NC(=O)[C@H](CCCN)NC(=O)[C@H]2CCCN2C(=O)[C@H](NC(=O)[C@@H](NC(=O)[C@H](C)NC(=O)[C@H](NC(=O)CCCC(C)C)C(C)C)C(C)C)C(C)C)[C@@H](C)CC)[C@@H](C)OC(=O)[C@H](C(C)C)NC1=O [Compound 112, [Ala^12]-KF] ({Hexanoyl(5-Me)}-[dV]AV[dV][dP][Orn][d(aIle)][d(aThr)][d(aIle)][dV]F[Dhb]V; ester 8-C)
GI50 (LNCaP; LN-caP): 1.19 µM
TGI LN-caP (LNCaP; LN-caP): 2.64E−06 Molar
CC50 (LNCaP; LN-caP): 5.85 µM
GI50 (LoVo-Dox): 1.11 µM
TGI LOVO-DOX (LoVo-Dox): 2.76E−06 Molar
CC50 (LoVo-Dox): 6.85 µM
GI50 (DU-145; DU-145): 1.34 µM
LC50 (concentration causing 50% net cell kill) (DU-145; DU-145): 5.91 µM
TGI DU-145 (DU-145; DU-145): 2.82E−06 Molar
GI50 (HeLa-APL; HELA-APL): 1.42 µM
TGI HELA-APL (HeLa-APL; HELA-APL): 2.85E−06 Molar
CC50 (HeLa-APL; HELA-APL): 5.75 µM
TGI HT-29 (HT-29; HT-29): 2.26E−06 Molar
GI50 (HT-29; HT-29): 1.15 µM
CC50 (HT-29; HT-29): 4.45 µM
GI50 (IGROV-1; IGROV): 1.31 µM
LC50 (concentration causing 50% net cell killing) (IGROV-1; IGROV): 6.91 µM
TGI IGROV (IGROV-1; IGROV): 3.09E−06 Molar
GI50 (PANC-1; PANC-1): 1.91 µM
TGI PANC-1 (PANC-1; PANC-1): 5.43E−06 Molar
CC50 (PANC-1; PANC-1): 6.91 µM
TGI A-549 (A-549; A-549): 2.87E−06 Molar
GI50 (A-549; A-549): 1.45 µM
CC50 (A-549; A-549): 5.64 µM
GI50 (HeLa; HELA): 0.739 µM
TGI HELA (HeLa; HELA): 2.41E−06 Molar
CC50 (HeLa; HELA): 6.91 µM
GI50 (SK-BR-3; SK-BR-3): 3.97 µM
LC50 (SK-BR-3; SK-BR-3): 6.91 µM
TGI SK-BR-3 (SK-BR-3; SK-BR-3): 5.84E−06 Molar
GI50 (K-562; K-562): 2.79 µM
TGI K-562 (K-562; K-562): 5.62E−06 Molar
CC50 (K-562; K-562): 6.91 µM
GI50 (SK-MEL-28; MEL-28): 1.39 µM
TGI MEL-28 (SK-MEL-28; MEL-28): 2.74E−06 Molar
CC50 (SK-MEL-28; MEL-28): 5.43 µM
GI50 (IGROV-ET; IGROV-ET): 1.51 µM
TGI IGROV-ET (IGROV-ET; IGROV-ET): 3.44E−06 Molar
CC50 (IGROV-ET; IGROV-ET): 6.91 µM

C/C=C1\NC(=O)[C@H](Cc2ccccc2)NC(=O)[C@@H](C(C)C)NC(=O)[C@@H]([C@@H](C)CC)NC(=O)[C@H](NC(=O)[C@H](NC(=O)[C@H](CCCN)NC(=O)[C@H]2CCCN2C(=O)[C@H](NC(=O)[C@@H](NC(=O)[C@H](CCC(=O)O)NC(=O)[C@H](NC(=O)CCCC(C)C)C(C)C)C(C)C)C(C)C)[C@@H](C)CC)[C@@H](C)OC(=O)[C@H](C(C)C)NC1=O [Compound 115, [Glu^12]-KF] ({Hexanoyl(5-Me)}-[dV]EV[dV][dP][Orn][d(aIle)][d(aThr)][d(aIle)][dV]F[Dhb]V; ester 8-C)
GI50 (LNCaP; LN-caP): 1.28 µM
TGI LN-caP (LNCaP; LN-caP): 2.54E−06 Molar
CC50 (LNCaP; LN-caP): 5.01 µM
GI50 (LoVo-Dox): 1.52 µM
TGI LOVO-DOX (LoVo-Dox): 3.00E−06 Molar
CC50 (LoVo-Dox): 5.92 µM
GI50 (DU-145; DU-145): 3.25 µM
LC50 (concentration causing 50% net cell kill) (DU-145; DU-145): 6.64 µM
TGI DU-145 (DU-145; DU-145): 6.64E−06 Molar
GI50 (HeLa-APL; HELA-APL): 2.99 µM
TGI HELA-APL (HeLa-APL; HELA-APL): 6.64E−06 Molar
CC50 (HeLa-APL; HELA-APL): 6.64 µM
TGI HT-29 (HT-29; HT-29): 2.60E−06 Molar
GI50 (HT-29; HT-29): 1.33 µM
CC50 (HT-29; HT-29): 5.09 µM
GI50 (IGROV-1; IGROV): 1.54 µM
LC50 (concentration causing 50% net cell killing) (IGROV-1; IGROV): 6.64 µM
TGI IGROV (IGROV-1; IGROV): 3.59E−06 Molar
GI50 (PANC-1; PANC-1): 6.64 µM
TGI PANC-1 (PANC-1; PANC-1): 6.64E−06 Molar
CC50 (PANC-1; PANC-1): 6.64 µM
TGI A-549 (A-549; A-549): 6.64E−06 Molar
GI50 (A-549; A-549): 4.1 µM
CC50 (A-549; A-549): 6.64 µM
GI50 (HeLa; HELA): 6.64 µM
TGI HELA (HeLa; HELA): 6.64E−06 Molar
CC50 (HeLa; HELA): 6.64 µM
GI50 (SK-BR-3; SK-BR-3): 1.35 µM
LC50 (SK-BR-3; SK-BR-3): 6.64 µM
TGI SK-BR-3 (SK-BR-3; SK-BR-3): 3.01E−06 Molar
GI50 (K-562; K-562): 6.64 µM
TGI K-562 (K-562; K-562): 6.64E−06 Molar
CC50 (K-562; K-562): 6.64 µM
GI50 (SK-MEL-28; MEL-28): 6.5 µM
TGI MEL-28 (SK-MEL-28; MEL-28): 6.64E−06 Molar
CC50 (SK-MEL-28; MEL-28): 6.64 µM
GI50 (IGROV-ET; IGROV-ET): 1.67 µM
TGI IGROV-ET (IGROV-ET; IGROV-ET): 3.12E−06 Molar
CC50 (IGROV-ET; IGROV-ET): 5.83 µM

C/C=C1\NC(=O)[C@H](Cc2ccccc2)NC(=O)[C@@H](C(C)C)NC(=O)[C@@H]([C@@H](C)CC)NC(=O)[C@H](NC(=O)[C@H](NC(=O)[C@H](CCCN)NC(=O)[C@H]2CCCN2C(=O)[C@H](NC(=O)[C@@H](NC(=O)[C@@H](NC(=O)[C@H](NC(=O)c2ccc(C)cc2)C(C)C)[C@@H](C)O)C(C)C)C(C)C)[C@@H](C)CC)[C@@H](C)OC(=O)[C@H](C(C)C)NC1=O [Compound 19, [p-MeBza^14]-KF]
TGI LN-caP (LNCaP): 2.55E−06 Molar
GI50 (LNCaP; read-out: GI50 LN-caP): 1.02 µM
GI50 (DU-145): 0.775 µM
TGI DU-145 (DU-145): 1.73E−06 Molar
GI50 (LoVo): 0.12 µM
TGI LOVO (LoVo): 2.35E−07 Molar
GI50 (HeLa-APL): 0.923 µM
TGI HELA-APL (HeLa-APL): 2.00E−06 Molar
TGI HT-29 (HT-29): 1.12E−06 Molar
GI50 (HT-29): 0.314 µM
GI50 (IGROV-1): 0.343 µM
TGI IGROV (IGROV-1): 1.37E−06 Molar
GI50 (PANC-1): 2.06 µM
TGI A-549 (A-549): 1.71E−06 Molar
GI50 (A-549): 0.775 µM
GI50 (HeLa): 0.849 µM
TGI HELA (HeLa): 1.95E−06 Molar
GI50 (SK-BR-3): 0.17 µM
TGI SK-BR-3 (SK-BR-3): 3.77E−07 Molar
GI50 (K-562): 0.762 µM
TGI K-562 (K-562): 2.01E−06 Molar
GI50 (SK-MEL-28): 1.16 µM
TGI MEL-28 (SK-MEL-28): 2.24E−06 Molar
GI50 (IGROV-ET): 0.439 µM
TGI IGROV-ET (IGROV-ET): 1.44E−06 Molar
